Reference: patent publication US7449465B2, “Triazolopyrimidine derivatives as glycogen synthase kinase 3 inhibitors” (Janssen Pharmaceutica, N.V., priority 2003, dated 2008)

How the values were obtained:
GSK3β = GSK3β (Homo sapiens, UniProt P49841); assay: GSK3beta assay (SPA, biotinylated phosphorylated CREB peptide, ATP-P33); assay type: biochemical; conditions: ranges of pIC50 (−log IC50 (M)); 1 μM ATP, room temperature, one hour; read-out: GSK3b pIC50 (converted)
Protocol: (§1) GSK3beta assays were performed at room temperature in a 100 μl reaction volume of 25 mM Tris (pH 7.4) containing 10 mM MgCl2.6H2O, 1 mM DTI, 0.1 mgiml BSA, 5% glycerol and containing 5.7 ng/μl GSK3β, 5 μM biotinylated phosphorylated CREB peptide, 1 μM ATP, 0.85 μCi/ml ATP-P^33 and a suitable amount of a test compound of formula (I). After one hour, the reaction was terminated by adding 70 μl of Stop mix (0.1 mM ATP, 5 mg/ml streptavidin coated PVT SPA bead pH 11.0). The beads to which the phosphorylated CREB peptide is attached were allowed to settle overnight and the radioactivity of the beads was counted in a microtiterplate scintillation counter and compared with the results obtained in a control experiment (without the presence of a test compound) in order to determine the percentage of GSK3β inhibition. The IC50 value, i.e. the concentration (M) of the test compound at which 50% of GSK3β is inhibited, was calculated from the dose response curve obtained by performing the above-described GSK3β assay in the presence of different amounts of the test compound.

GSK3alpha = GSK3alpha (Homo sapiens, UniProt P49840); assay: GSK3alpha assay (same as the GSK3beta assay, 0.25 ng/μl GSK3alpha); assay type: biochemical; conditions: ranges of pIC50 (−log IC50 (M)), 1 μM ATP, read-out: GSK3a pIC50 (converted)
Sequence of GSK3alpha (P49840 whole entry, species assumed): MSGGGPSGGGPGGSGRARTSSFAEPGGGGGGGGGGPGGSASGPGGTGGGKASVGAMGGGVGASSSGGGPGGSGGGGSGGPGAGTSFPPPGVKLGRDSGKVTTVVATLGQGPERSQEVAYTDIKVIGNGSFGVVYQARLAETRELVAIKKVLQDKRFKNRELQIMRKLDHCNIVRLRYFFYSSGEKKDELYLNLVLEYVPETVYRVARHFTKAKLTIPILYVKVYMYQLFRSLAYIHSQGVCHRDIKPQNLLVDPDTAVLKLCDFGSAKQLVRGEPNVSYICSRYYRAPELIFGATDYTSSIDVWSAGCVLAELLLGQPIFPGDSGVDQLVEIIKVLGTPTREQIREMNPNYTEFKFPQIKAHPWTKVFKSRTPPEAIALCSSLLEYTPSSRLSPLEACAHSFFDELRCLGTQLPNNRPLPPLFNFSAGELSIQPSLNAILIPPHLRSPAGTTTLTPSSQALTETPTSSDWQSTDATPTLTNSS
Protocol: as §1
The GSK3alpha assay was performed in the same way as described above for the GSK3beta assay except for the concentration of GSK3alpha which is 0.25 ng/μl.

Sequence of GSK3β (P49841 whole entry, species assumed): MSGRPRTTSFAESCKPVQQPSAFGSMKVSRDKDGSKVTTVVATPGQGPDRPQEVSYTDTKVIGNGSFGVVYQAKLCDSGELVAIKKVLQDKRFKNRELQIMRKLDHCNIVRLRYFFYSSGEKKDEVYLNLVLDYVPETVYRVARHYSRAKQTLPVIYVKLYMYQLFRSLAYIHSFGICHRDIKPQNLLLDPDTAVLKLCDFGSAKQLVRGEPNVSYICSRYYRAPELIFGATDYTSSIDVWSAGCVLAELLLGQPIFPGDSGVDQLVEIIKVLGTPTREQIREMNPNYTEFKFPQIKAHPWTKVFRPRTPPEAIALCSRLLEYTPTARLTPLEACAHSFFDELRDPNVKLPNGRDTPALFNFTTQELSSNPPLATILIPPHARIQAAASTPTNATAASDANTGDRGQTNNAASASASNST

Compound | IC50 (GSK3β) | IC50 (GSK3alpha)
COCc1cccc(-n2nnc3cnc(Nc4ccc(OCCN5CCN(C)CC5)cc4)nc32)c1 [Compound 105] | 1e-08 to 1e-07 M | 1e-08 to 1e-07 M
COc1cccc(-n2nnc3cnc(Nc4cccc(N5CCN(C)CC5)c4)nc32)c1 [Compound 129] | 1e-08 to 1e-07 M | 1e-08 to 1e-07 M
Fc1cccc(-n2nnc3cnc(Nc4cccc(-c5cc[nH]n5)c4)nc32)c1 [Compound 22] | < 1e-08 M | < 1e-08 M
NS(=O)(=O)c1cccc(-n2nnc3cnc(Nc4cccc(-c5cnco5)c4)nc32)c1 [Compound 145] | < 1e-08 M | < 1e-08 M
CCOC(=O)NCc1cccc(-n2nnc3cnc(Nc4cccc(-c5cnco5)c4)nc32)c1 [Compound 125] | < 1e-08 M | < 1e-08 M
COCCOc1cccc(-n2nnc3cnc(Nc4ccc(OCCCN5CCN(C)CC5)cc4)nc32)c1 [Compound 135] | 1e-08 to 1e-07 M | 1e-08 to 1e-07 M
O=S(=O)(NCCNc1ncccn1)c1cccc(Nc2ncc3nnn(-c4cccc(F)c4)c3n2)c1 [Compound 136] | 1e-08 to 1e-07 M | 1e-08 to 1e-07 M
Cn1nnc(-c2cccc(Nc3ncc4nnn(-c5cccc(F)c5)c4n3)c2)n1 [Compound 29] | < 1e-08 M | < 1e-08 M
COc1cccc(-n2nnc3cnc(Nc4cccc(-c5ccnc(N)n5)c4)nc32)c1 [Compound 19] | < 1e-08 M | < 1e-08 M
O=c1[nH]nc(-c2cccc(Nc3ncc4nnn(-c5cccc(Br)c5)c4n3)c2)[nH]1 [Compound 46] | 1e-08 to 1e-07 M | < 1e-08 M
N#CCc1cccc(-n2nnc3cnc(Nc4ccc(CN5CCC(O)CC5)cc4)nc32)c1 [Compound 90] | < 1e-08 M | < 1e-08 M
CCC(C)n1ncn(-c2ccc(Nc3ncc4nnn(-c5cccc(F)c5)c4n3)cc2)c1=O (centres unmarked) [Compound 41] | 1e-08 to 1e-07 M | 1e-08 to 1e-07 M
Fc1cccc(-n2nnc3cnc(Nc4ccc(OCCCN5CCOCC5)cc4)nc32)c1 [Compound 144] | 1e-08 to 1e-07 M | < 1e-08 M
Fc1cccc(-n2nnc3cnc(Nc4ccc(-c5cnco5)cc4)nc32)c1 [Compound 38] | 1e-08 to 1e-07 M | 1e-08 to 1e-07 M
COCCOCc1cccc(-n2nnc3cnc(Nc4ccc(OCCCN5CCN(C)CC5)cc4)nc32)c1 [Compound 113] | 1e-08 to 1e-07 M | 1e-08 M
N#CNc1nccc(-c2cccc(Nc3ncc4nnn(-c5cccc(F)c5)c4n3)c2)n1 [Compound 35] | < 1e-08 M | < 1e-08 M
COCCOCc1cccc(-n2nnc3cnc(Nc4ccc(C(=O)N5CCN(C)CC5)cc4)nc32)c1 [Compound 111] | < 1e-08 M | < 1e-08 M
Fc1cccc(-n2nnc3cnc(Nc4ccc(-n5cccn5)cc4)nc32)c1 [Compound 39] | 1e-08 to 1e-07 M | > 1e-07 M
Nc1nccc(-c2cccc(Nc3ncc4nnn(-c5cccc(F)c5)c4n3)c2)n1 [Compound 33] | < 1e-08 M | < 1e-08 M
Brc1cccc(-n2nnc3cnc(Nc4cccc(-c5ccn[nH]5)c4)nc32)c1 [Compound 44] | 1e-08 to 1e-07 M | < 1e-08 M
COCc1cccc(-n2nnc3cnc(Nc4ccc(C(=O)NCCN5CCOCC5)cc4)nc32)c1 [Compound 104] | < 1e-08 M | < 1e-08 M

Compound | IC50 (GSK3β) | IC50 (GSK3alpha)
Cn1cc(Br)c(-c2cccc(Nc3ncc4nnn(-c5cccc(CCO)c5)c4n3)c2)n1 [Compound 152] | < 1e-08 M | < 1e-08 M
Nc1nccc(-c2cccc(Nc3ncc4nnn(-c5ccccc5)c4n3)c2)n1 [Compound 151] | < 1e-08 M | < 1e-08 M
CC(=O)NCc1cccc(-n2nnc3cnc(Nc4cccc(-c5ccnc(N)n5)c4)nc32)c1 [Compound 117] | > 1e-09 M | < 1e-08 M
COCCOCc1cccc(-n2nnc3cnc(Nc4ccc(CN5CCC(O)CC5)cc4)nc32)c1 [Compound 110] | 1e-08 to 1e-07 M | 1e-08 to 1e-07 M
Cn1nnnc1-c1cccc(Nc2ncc3nnn(-c4cccc(F)c4)c3n2)c1 [Compound 28] | < 1e-08 M | < 1e-08 M
OCCc1cccc(-n2nnc3cnc(Nc4ccc(Nc5ncccn5)cc4)nc32)c1 [Compound 84] | < 1e-08 M | < 1e-08 M
Nc1nccc(-c2cccc(Nc3ncc4nnn(-c5cccc(S(N)(=O)=O)c5)c4n3)c2)n1 [Compound 147] | < 1e-08 M | < 1e-08 M
COCCOc1cccc(-n2nnc3cnc(Nc4ccc(CN5CCN(C)CC5)cc4)nc32)c1 [Compound 131] | 1e-08 to 1e-07 M | 1e-08 to 1e-07 M
COCc1cccc(-n2nnc3cnc(Nc4cccc(-c5nnnn5C)c4)nc32)c1 [Compound 99] | < 1e-08 M | < 1e-08 M
COCc1cccc(-n2nnc3cnc(Nc4ccc(C(=O)N5CCN(C)CC5)cc4)nc32)c1 [Compound 103] | < 1e-08 M | < 1e-08 M
COc1cccc(-n2nnc3cnc(Nc4cccc(-c5nnnn5C)c4)nc32)c1 [Compound 128] | < 1e-08 M | < 1e-08 M
COCC(=O)NCc1cccc(-n2nnc3cnc(Nc4ccc(-c5cnco5)cc4)nc32)c1 [Compound 123] | < 1e-08 M | < 1e-08 M
Cn1cc(Br)c(-c2cccc(Nc3ncc4nnn(-c5cccc(F)c5)c4n3)c2)n1 [Compound 25] | 1e-08 to 1e-07 M | 1e-08 to 1e-07 M
Fc1cccc(-n2nnc3cnc(Nc4ccc(OCCCN5CCCCC5)cc4)nc32)c1 [Compound 142] | 1e-08 to 1e-07 M | 1e-08 to 1e-07 M
OCCc1cccc(-n2nnc3cnc(Nc4cccc(-c5nnn[nH]5)c4)nc32)c1 [Compound 75] | 1e-08 M | 1e-08 to 1e-07 M
Fc1cccc(-n2nnc3cnc(Nc4cccc(-c5ncc[nH]5)c4)nc32)c1 [Compound 149] | < 1e-08 M | < 1e-08 M
Cn1nnc(-c2ccc(Nc3ncc4nnn(-c5cccc(F)c5)c4n3)cc2)n1 [Compound 42] | < 1e-08 M | 1e-08 to 1e-07 M
CN1CCN(C(=O)c2ccc(Nc3ncc4nnn(-c5cccc(CC#N)c5)c4n3)cc2)CC1 [Compound 91] | < 1e-08 M | < 1e-08 M
COCc1cccc(-n2nnc3cnc(Nc4ccc(CN5CCN(C)CC5)cc4)nc32)c1 [Compound 101] | 1e-08 to 1e-07 M | < 1e-08 M
Cn1nccc1-c1cccc(Nc2ncc3nnn(-c4cccc(F)c4)c3n2)c1 [Compound 23] | < 1e-08 M | < 1e-08 M
CC(C)CC(=O)NCc1cccc(-n2nnc3cnc(Nc4cccc(-c5ccnc(N)n5)c4)nc32)c1 [Compound 121] | < 1e-08 M | 1e-08 M

Compound | IC50 (GSK3β) | IC50 (GSK3alpha)
CN1CCN(Cc2ccc(Nc3ncc4nnn(-c5cccc(CC#N)c5)c4n3)cc2)CC1 [Compound 89] | 1e-08 to 1e-07 M | < 1e-08 M
COCCOCc1cccc(-n2nnc3cnc(Nc4ccc(N5CCN(C)CC5)cc4)nc32)c1 [Compound 108] | < 1e-08 M | 1e-08 to 1e-07 M
CN1CCN(CCOc2ccc(Nc3ncc4nnn(-c5cccc(CCO)c5)c4n3)cc2)CC1 [Compound 82] | 1e-08 M | < 1e-08 M
N#CCc1cccc(-n2nnc3cnc(Nc4cccc(-c5cnco5)c4)nc32)c1 [Compound 86] | < 1e-08 M | < 1e-08 M
Cc1nc(-c2cccc(Nc3ncc4nnn(-c5cccc(F)c5)c4n3)c2)cs1 [Compound 21] | < 1e-08 M | < 1e-08 M
NCc1cccc(-n2nnc3cnc(Nc4cccc(-c5cnco5)c4)nc32)c1 [Compound 114] | < 1e-08 M | < 1e-08 M
CN1CCN(c2ccc(Nc3ncc4nnn(-c5cccc(CCO)c5)c4n3)cc2)CC1 [Compound 77] | < 1e-08 M | < 1e-08 M
Fc1cccc(-n2nnc3cnc(Nc4cccc(-c5nnn[nH]5)c4)nc32)c1 [Compound 27] | < 1e-08 M | < 1e-08 M
Brc1cccc(-n2nnc3cnc(Nc4cccc(C5=NCNC5)c4)nc32)c1 [Compound 43] | < 1e-08 M | < 1e-08 M
c1ccc(-n2nnc3cnc(Nc4ccc(N5CCOCC5)cc4)nc32)cc1 [Compound 11] | 1e-08 to 1e-07 M | 1e-08 to 1e-07 M
COc1cccc(-n2nnc3cnc(Nc4cccc(-c5nnn(C)n5)c4)nc32)c1 [Compound 18] | < 1e-08 M | < 1e-08 M
Cn1ccnc1-c1cccc(Nc2ncc3nnn(-c4cccc(C(N)=O)c4)c3n2)c1 [Compound 7] | 1e-08 to 1e-07 M | < 1e-08 M
Cn1ccnc1-c1cccc(Nc2ncc3nnn(-c4cccc(F)c4)c3n2)c1 [Compound 24] | < 1e-08 M | < 1e-08 M
Cn1nnnc1-c1cccc(Nc2ncc3nnn(-c4ccccc4)c3n2)c1 [Compound 74] | < 1e-08 M | < 1e-08 M
COCc1cccc(-n2nnc3cnc(Nc4ccc(CN5CCC(O)CC5)cc4)nc32)c1 [Compound 102] | 1e-08 to 1e-07 M | 1e-08 to 1e-07 M
Brc1cccc(-n2nnc3cnc(Nc4ccc(-c5cc[nH]n5)cc4)nc32)c1 [Compound 50] | 1e-08 to 1e-07 M | < 1e-08 M
CN1CCN(CCCOc2ccc(Nc3ncc4nnn(-c5cccc(CCO)c5)c4n3)cc2)CC1 [Compound 83] | < 1e-08 M | < 1e-08 M
Cn1nnc(-c2ccc(Nc3ncc4nnn(-c5cccc(Br)c5)c4n3)cc2)n1 [Compound 53] | 1e-08 to 1e-07 M | < 1e-08 M
Cn1nccc1-c1cccc(Nc2ncc3nnn(-c4cccc(Br)c4)c3n2)c1 [Compound 8] | > 1e-07 M | < 1e-08 M
